Earlier results as cited in US20220323356A1, “METAL (HYDR)OXIDE COMPOSITE COMPRISING POORLY SOLUBLE DRUG, METHOD FOR PREPARING SAME, AND PHARMACEUTICAL COMPOSITION COMPRISING SAME” (priority 2020, published 2022).
Where a name gives a salt, the structure may show the parent alone. *1 amine or outer side, *2 acyl side, *3 side chain or, on linkers, in order; H or OH if unused. Where a SMILES comes first, the peptide text is derived from it. Bridges are numbered along the chain shown (N, C = ends). [ ]: non-standard residue; d: D form. The star is where a group is joined. pTerphenylCO(4''-OnC5H11) = CCCCCOc1ccc(-c2ccc(-c3ccc(C(=O)*)cc3)cc2)cc1; Orn(4R-OH,5R-OH) = O=C([C@H](C[C@@H](O)[C@@H](O)N[*:3])N[*:1])[*:2]; hTyr(3S-OH,4S-OH) = N[C@H](C(=O)O)[C@H](O)[C@@H](O)c1ccc(O)cc1; Pro(3S-OH,4S-Me) = C[C@H]1CN[C@H](C(=O)O)[C@H]1O; Hyp = O=C(O)[C@@H]1C[C@@H](O)CN1

Conditions: in vivo; cited from earlier work

Row | Structure (SMILES) | bioavailability (%)
1 | C[C@]12CC[C@H](O)CC1=CC[C@@H]1[C@@H]2CC[C@]2(C)C(c3cccnc3)=CC[C@@H]12 [Abiraterone] | <10%
2 | O=C1O[C@H]([C@@H](O)CO)C(O)=C1O [Ascorbic acid] | 69%
3 | CNC(=O)c1ccccc1Sc1ccc2c(/C=C/c3ccccn3)n[nH]c2c1 [Axitinib] | 58%
4 | COc1cc(Nc2c(C#N)cnc3cc(OCCCN4CCN(C)CC4)c(OC)cc23)c(Cl)cc1Cl [Bosutinib] | 34%
5 | COc1cc2nccc(Oc3ccc(NC(=O)C4(C(=O)Nc5ccc(F)cc5)CC4)cc3)c2cc1OC [Cabozantinib] | 74-93%
6 | O=c1[nH]cc(F)c(=O)[nH]1 [Fluorouracil] | 28%
7 | CC(=O)[C@]1(O)Cc2c(O)c3c(c(O)c2[C@@H](O[C@H]2C[C@H](N)[C@H](O)[C@H](C)O2)C1)C(=O)c1ccccc1C3=O [Idarubicin] | 20-25%
8 | CC(=O)O[C@H]1C(=O)[C@@]2(C)[C@H]([C@H](OC(=O)c3ccccc3)[C@]3(O)C[C@H](OC(=O)[C@H](O)[C@@H](NC(=O)c4ccccc4)c4ccccc4)C(C)=C1C3(C)C)[C@]1(OC(C)=O)CO[C@@H]1C[C@@H]2O [Paclitaxel] | 30%
9 | CCN(CC)CCOc1ccc2c(c1)C(=O)c1cc(OCCN(CC)CC)ccc1-2 [Tilorone] | 60%
10 | CC[C@@]1(O)C(=O)OCc2c1cc1n(c2=O)Cc2cc3c(CN(C)C)c(O)ccc3nc2-1 [Topotecan] | 30-44%
11 | CCN1CCN(Cc2ccc(Nc3ncc(F)c(-c4cc(F)c5nc(C)n(C(C)C)c5c4)n3)nc2)CC1 [abemaciclib(USAN), abemaciclib] | 45%
12 | CC(=O)N[C@@H](CS)C(=O)O [acetylcysteine] | 10%
13 | Oc1ncnc2[nH]ncc12 [allopurinol] | 67%
14 | CCN(CC)Cc1cc(Nc2ccnc3cc(Cl)ccc23)ccc1O [amodiaquine] | 22%
15 | CCCCCOc1ccc(-c2ccc(-c3ccc(C(=O)N[C@H]4C[C@@H](O)[C@@H](O)NC(=O)[C@@H]5[C@@H](O)[C@@H](C)CN5C(=O)[C@H]([C@@H](C)O)NC(=O)[C@H]([C@H](O)[C@@H](O)c5ccc(O)cc5)NC(=O)[C@@H]5C[C@@H](O)CN5C(=O)[C@H]([C@@H](C)O)NC4=O)cc3)cc2)cc1 [anidulafungin(LY303366), anidulafungin] ({pTerphenylCO(4''-OnC5H11)}-[Orn(4R-OH,5R-OH)]T[Hyp][hTyr(3S-OH,4S-OH)]T[Pro(3S-OH,4S-Me)]; lactam 1-C) | 2~7%
16 | COC(=O)N[C@H](C(=O)N[C@@H](Cc1ccccc1)[C@@H](O)CN(Cc1ccc(-c2ccccn2)cc1)NC(=O)[C@@H](NC(=O)OC)C(C)(C)C)C(C)(C)C [atazanavir] | 60%
17 | Cc1c(-c2ccc(O)cc2)n(Cc2ccc(OCCN3CCCCCC3)cc2)c2ccc(O)cc12 [bazedoxifene] | 6%
18 | COc1cc2c3cc1Oc1c(OC)c(OC)cc4c1[C@@H](Cc1ccc(O)c(c1)Oc1ccc(cc1)C[C@@H]3N(C)CC2)N(C)CC4 [berbamine] | 30%
19 | N.N.O=C([O-])C1(C(=O)[O-])CCC1.[Pt+2] [carboplatin] | 1.16%
20 | COc1ccc2cc1Oc1ccc(cc1)C[C@H]1c3c(cc4c(c3Oc3cc5c(cc3OC)CCN(C)[C@@H]5C2)OCO4)CCN1C [cepharanthine] | 5%
21 | Cc1cc(Nc2ncc(Cl)c(Nc3ccccc3S(=O)(=O)C(C)C)n2)c(OC(C)C)cc1C1CCNCC1 [ceritinib(LDK378), ceritinib] | 50%

Row | Structure (SMILES) | bioavailability (%)
22 | CCN(CC)CCCC(C)Nc1ccnc2cc(Cl)ccc12 (centres unmarked) [chloroquine] | 50~100%
23 | CC(C)C(=O)OCC(=O)[C@@]12O[C@H](C3CCCCC3)O[C@@H]1C[C@H]1[C@@H]3CCC4=CC(=O)C=C[C@]4(C)[C@H]3[C@@H](O)C[C@@]12C [ciclesonide] | <1%
24 | CCN(CC)CCOc1ccc(C(=C(Cl)c2ccccc2)c2ccccc2)cc1 [clomiphene] | 90%
25 | CC(C)(C)c1nc(-c2cccc(NS(=O)(=O)c3c(F)cccc3F)c2F)c(-c2ccnc(N)n2)s1 [dabrafenib] | 95%
26 | C[C@H]1O[C@@H](O[C@H]2[C@@H](O)C[C@H](O[C@H]3[C@@H](O)C[C@H](O[C@H]4CC[C@@]5(C)[C@H](CC[C@@H]6[C@@H]5CC[C@]5(C)[C@@H](C7=CC(=O)OC7)CC[C@]65O)C4)O[C@@H]3C)O[C@@H]2C)C[C@H](O)[C@@H]1O [digitoxin] | 98%
27 | C[C@H]1O[C@@H](O[C@H]2[C@@H](O)C[C@H](O[C@H]3[C@@H](O)C[C@H](O[C@H]4CC[C@@]5(C)[C@H](CC[C@@H]6[C@@H]5C[C@@H](O)[C@]5(C)[C@@H](C7=CC(=O)OC7)CC[C@]65O)C4)O[C@@H]3C)O[C@@H]2C)C[C@H](O)[C@@H]1O [digoxin] | 50~90%
28 | COc1cccc2c1C(=O)c1c(O)c3c(c(O)c1C2=O)C[C@@](O)(C(=O)CO)C[C@@H]3O[C@H]1C[C@H](N)[C@H](O)[C@H](C)O1 [doxorubicin] | 5%
29 | CC/C(=C(/c1ccc(OCCN(C)C)cc1)c1cccc(O)c1)c1ccccc1 [droloxifene] | 2%
30 | CCCCc1oc2ccc(NS(C)(=O)=O)cc2c1C(=O)c1ccc(OCCCN(CCCC)CCCC)cc1 [dronedarone] | 15%
31 | CC1=NN(c2ccc(C)c(C)c2)C(=O)/C1=N\Nc1cccc(-c2cccc(C(=O)O)c2)c1O [eltrombopag] | 52%
32 | C#Cc1cccc(Nc2ncnc3cc(OCCOC)c(OCCOC)cc23)c1 [erlotinib] | 59%
33 | CO[C@H]1C[C@@H]2CC[C@@H](C)[C@@](O)(O2)C(=O)C(=O)N2CCCC[C@H]2C(=O)O[C@H]([C@H](C)C[C@@H]2CC[C@@H](OCCO)[C@H](OC)C2)CC(=O)[C@H](C)/C=C(\C)[C@@H](O)[C@@H](OC)C(=O)[C@H](C)C[C@H](C)/C=C/C=C/C=C/1C [everolimus] | 5%
34 | NC(=O)c1nc(F)c[nH]c1=O [favipiravir] | 98%
35 | CCc1nc(C(N)=O)c(Nc2ccc(N3CCC(N4CCN(C)CC4)CC3)c(OC)c2)nc1NC1CCOCC1 [gilteritinib] | 60%
36 | Oc1c(Cl)cc(Cl)c(Cl)c1Cc1c(O)c(Cl)cc(Cl)c1Cl [hexachlorophene] | 4~10%
37 | CCN(CCO)CCCC(C)Nc1ccnc2cc(Cl)ccc12 (centres unmarked) [hydroxychloroquine] | 70%
38 | CC(=O)[C@@]1(O)CC[C@H]2[C@@H]3CCC4=CC(=O)CC[C@]4(C)[C@H]3CC[C@@]21C [hydroxyprogesterone] | 3%
39 | COC1=C(OC)C(=O)C(CCCCCCCCCCO)=C(C)C1=O [idebenone] | <1%
40 | CC(C)(C)c1cc(C(C)(C)C)c(NC(=O)c2c[nH]c3ccccc3c2=O)cc1O [ivacaftor] | 20~30%
41 | CS(=O)(=O)CCNCc1ccc(-c2ccc3ncnc(Nc4ccc(OCc5cccc(F)c5)c(Cl)c4)c3c2)o1 [lapatinib] | 60%
42 | N#Cc1cc(NC(=O)C(=O)O)c(Cl)c(NC(=O)C(=O)O)c1 [lodoxamide] | 71%

Row | Structure (SMILES) | bioavailability (%)
43 | CN(C)C(=O)C(CCN1CCC(O)(c2ccc(Cl)cc2)CC1)(c1ccccc1)c1ccccc1 [loperamide] | 0.3%
44 | Cc1cccc(C)c1OCC(=O)N[C@@H](Cc1ccccc1)[C@@H](O)C[C@H](Cc1ccccc1)NC(=O)[C@H](C(C)C)N1CCCNC1=O [lopinavir] | 25%
45 | OC(c1cc(C(F)(F)F)nc2c(C(F)(F)F)cccc12)C1CCCCN1 (centres unmarked) [mefloquine] | 85%
46 | COc1ccc2[nH]cc(CCNC(C)=O)c2c1 [melatonin] | 15%
47 | O=C(Nc1ccc([N+](=O)[O-])cc1Cl)c1cc(Cl)ccc1O [niclosamide] | 10%
48 | Cc1cn(-c2cc(NC(=O)c3ccc(C)c(Nc4nccc(-c5cccnc5)n4)c3)cc(C(F)(F)F)c2)cn1 [nilotinib] | 30%
49 | C=CC(=O)Nc1cc(Nc2nccc(-c3cn(C)c4ccccc34)n2)c(OC)cc1N(C)CCN(C)C [osimertinib(AZD-9291), osimertinib] | 70%
50 | Cc1ccc(Nc2nccc(N(C)c3ccc4c(C)n(C)nc4c3)n2)cc1S(N)(=O)=O [pazopanib] | 14-39%
51 | CC(=O)CCCCn1c(=O)c2c(ncn2C)n(C)c1=O [pentoxifylline] | 20%
52 | C1CCC(C(CC2CCCCN2)C2CCCCC2)CC1 (centres unmarked) [perhexiline maleate] | 80%
53 | CCCN[C@H]1CCc2nc(N)sc2C1 [pramipexole] | 90%
54 | CC(C)(Sc1cc(C(C)(C)C)c(O)c(C(C)(C)C)c1)Sc1cc(C(C)(C)C)c(O)c(C(C)(C)C)c1 [probucol] | 6%
55 | C[C@@H]1O[C@@H](O[C@@H]2C=C3CC[C@@H]4[C@H](CC[C@]5(C)[C@@H](c6ccc(=O)oc6)CC[C@]45O)[C@@]3(C)CC2)[C@H](O)[C@H](O)[C@H]1O [proscillaridin] | 25%
56 | O=c1c(O)c(-c2ccc(O)c(O)c2)oc2cc(O)cc(O)c12 [quercetin] | 20%
57 | CC[C@@H](C(=O)[C@@H](C)[C@@H](O)[C@H](C)[C@@H]1O[C@@H]([C@@H](CC)C(=O)O)CC[C@@H]1C)[C@H]1O[C@]2(C=C[C@@H](O)[C@]3(CC[C@@](C)([C@H]4CC[C@](O)(CC)[C@H](C)O4)O3)O2)[C@H](C)C[C@@H]1C [salinomycin] | 73%
58 | Cc1c(C(=O)Nc2ccc(N3C[C@@H](C)O[C@@H](C)C3)nc2)cccc1-c1ccc(OC(F)(F)F)cc1 [sonidegib] | 69%
59 | Cn1nnc2c(C(N)=O)ncn2c1=O [temozolomide] | 100%
60 | CSc1ccc2c(c1)N(CCC1CCCCN1C)c1ccccc1S2 (centres unmarked) [thioridazine] | 28%
61 | CN(C)CCOc1ccc(/C(=C(/CCCl)c2ccccc2)c2ccccc2)cc1 [toremifene] | 100%
62 | CC(=O)Nc1cccc(-n2c(=O)n(C3CC3)c(=O)c3c(Nc4ccc(I)cc4F)n(C)c(=O)c(C)c32)c1 [trametinib] | 72%
